# Experimental data from patent US12378220B2, “WNT signaling pathway inhibitors for treatments of disease” (University of Maryland, Baltimore, priority 2016, dated 2025).
# Entries after “also recorded” stand apart in the source; their conditions may differ. Read-outs that look alike come from different tables or passages of the source.
# Key:
# [1] = system: Wnt/β-catenin pathway; test: dual-luciferase TCF/LEF reporter assay, LiCl-activated, HEK293 cells; format: cell-based; conditions: Homo sapiens; for activity at 1 µM: HEK293, 24 h, At 1 μM concentration, remaining Wnt signaling activity, read-out: RLU % (Relative Light Units in reporter gene assays); for IC50: HEK293
# Method: Lithium chloride (LiCl), which has been previously established as an activator of the Wnt/β-catenin pathway through its direct and indirect effects on GSK3β was used for pathway activation. The inhibition of the Wnt/β-catenin pathway by a compound may be determined after its incubation with cells for 24 hours.
# The assay provided herein is a dual-luciferase assay to measure Wnt/β-catenin pathway activation using a TCF/LEF responsive reporter construct similar to that described previously (Thorne et al., 2010).
# [2] = system: HepG2 cells; test: expression of Wnt pathway proteins; format: cell-based, human; conditions: FIG. 3
# Method: HepG2 cells were treated by YW1149 (vehicle, 0.1, 1 μM).
# [3] = system: primary hepatocytes; test: glucose production in primary hepatocytes; format: cell-based
# Source text: In light of this evidence, a class of triazole-based inhibitors were synthesized and tested, as described herein.
# [4] = plasma stability; format: in vitro ADME; conditions: mouse plasma, 37 degrees
# Method: (§1) FIGS. 5A and 5B illustrate the metabolic stability of YW1149. S9 fraction from mouse liver tissues (FIG. 5A) and mouse plasma samples (FIG. 5B) were mixed with YW1149 and incubated at 37 degrees, respectively. *P<0.05 as compared to time 0.
# (§2) The metabolic stability of these compounds was then estimated using YW1149 as a prototypical compound, with in vitro substrate depletion in mouse liver tissue S9 fraction as previously described (Jones and Houston, 2004).
# [5] = system: HEK293 cells; test: cytotoxicity, Cell Counting Kit-8 colorimetric assay; conditions: Homo sapiens, HEK293, read-out: anti-proliferation IC50
# Method: The cytotoxicity of series of a compound of the invention was measured using a colorimetric assay, Cell Counting Kit-8 (Sigma) in HEK293 cells.
# [6] = metabolic stability, substrate depletion in liver S9 fraction; format: in vitro ADME, mouse; conditions: 37 degrees, after one hour
# Method: as §1, §2
# [7] = in vivo
# Source text: Representative data from each group is shown.
# Blood samples were collected at multiple time points. […] Ultra-performance liquid chromatography system with a triple quadruple detector (UPLC/TQD) was used for compound quantitation.
# [8] = system: HepG2 cells; test: glucose production, G6P expression and AMPK phosphorylation; format: cell-based, human
# [9] = system: Madin-Darby Canine Kidney (MDCK) epithelial cell monolayer; test: permeability across MDCK monolayer on transwell plates; format: in vitro ADME; conditions: data not shown
# [10] = system: SW620 cells; test: quantitative real-time RT-PCR of Wnt regulated genes; format: cell-based, human
# Method: (§3) Quantitative Real-time RT-PCR. The total RNA extracted from the cells using TRIzol (Invitrogen) and 2 μg was reverse transcribed in a 20-μl volume system (QuantiTect Reverse Transcription Kit (Qiagen)) for quantitative PCR assays. SYBR green quantitative real-time PCR analyses were carried out using gene-specific primers (working concentration at 250 nM) in StepOnePlus real time PCR system (Applied Biosystems, AB), using the housekeeping gene GAPDH as an internal control. The PCR running procedure was as follows: 4 min denaturing at 95° C., followed by 40 cycles of 30 seconds of denaturing at 95° C. and then annealing and extension at 60° C. for 1 min.
# [11] = system: A549 cells; test: as above; format: cell-based, human
# Method: as §3
# [12] = system: WiDr cells; test: as above; format: cell-based, human
# Method: as §3
# [13] = system: WiDr, SW620, HT29, HEK_LTV, and T84 cell lines; test: cell proliferation and growth inhibition assay (CCK-8), cell line panel; format: cell-based, human; conditions: 72 h, FIG. 12
# Method: Cell Proliferation and Growth Inhibition Assay. HT-29, HCT-116, WiDr, SW620, SW480, T84, A549, MCF-7, HepG2, Hela cells were cultured in respective growth medium. Cells of log phase were used. 3000-5000 cells/well were seeded in 96-well plates with a 100 μL volume. After 24 h, Compounds were dissolved to […] with DMSO, and a 3-fold serial dilution of the compounds from 5×10^−5 M to […] was performed. 2 μL of compound solution was added to 998 μL of growth medium, the mixture was vortexed sufficiently. 100 μL of the mixture was correspondingly added to the 96-well plate. 2 μL DMSO instead of compound solution was used as the 0% inhibitor control. After coincubation for 72 h, the old medium was removed and 100 μL of 10% CCK-8 in culture medium was added. 2 h later the plates were read in the microplate reader (Bio-Rad) at 450 nm. The data was calculated using Graph Pad Prism version 5.0. The IC50 were fitted using a nonlinear regression model with a sigmoidal dose response.
# [14] = system: SW620 cells; test: Annexin-V/AAD-7 double-staining apoptosis assay; format: cell-based, human; conditions: SW620 cells, 0, 3, 10, 30 μM, 48 h
# Method: Annexin-V/AAD-7 Double-Staining Assay. SW620 cells were treated with 0, 3, 10, 30 μM/L of YW2013 for 48 h. Then they were harvested and washed with PBS. Apoptotic cells were determined with an FITC Annexin V Apoptosis Detection Kit according to the manufacturer's protocol. Briefly, the cells were washed and subsequently incubated for 15 min at room temperature in the dark in 100 μL of 1× binding buffer containing 2 μL of Annexin V-FITC and 2 μL of AAD-7. After 30 min, apoptosis was analyzed by BD FACSCanto II Flow Cytometer.
# [15] = system: SW620 cells; test: colony formation assay; format: cell-based, human
# Method: (§4) Colony Formation Assay. HT-29 and SW620, SW480 cells were seeded into 6-well dishes with the medium containing 0, 1, 3, 10, 30 μM/L of YW2013 or YW2044, 500 cells/well. After 2 weeks, cells were fixed with 4% paraformaldehyde solution and stained with 0.5% crystal violet for 1 h at room temperature. The images of colonies were captured by microscopy.
# [16] = system: SW480 cells; test: colony formation assay; format: cell-based, human; conditions: 0-30 μM, 2 weeks
# Method: as §4
# [17] = system: SW480 cells; test: Western blot of Wnt signaling proteins; format: cell-based, human; conditions: 48 h
# Method: Using a Wester Blot, compounds YW2013 and YW2123 were tested in SW480 cells to determine their effect on the expression of Axin-2, β-catenin, and c-myc.
# Western Blot: 1×10^6 Cells of SW480 cells were seeded into 6-well plates overnight. A concentration of 3, 10, 30 μM/L YW2013 and 3, 10 μM/L YW2123 was added after 24 h, medium with 1‰ DMSO was used as the control. Cells were exposed to treatment for 48 h. The dishes was washed twice using precold PBS and 100 μL of RIPA then added. After incubating plates on ice for 15 min, cells were scraped carefully and centrifuged for 10 minutes at 14,000 g at 4° C. immediately. The remaining supernatant and lysates were maintained at −70° C. A Bio-Rad protein assay kit (500-0002) was used to quantitate the cell lysates. The concentration was adjusted to 2 mg/ml. A ratio of 1:1 2× loading buffer was added and the samples were denatured by boiling. Protein samples were separated on 4-15% SDS-polyacrylamide gel (SDS-PAGE) and transferred onto the PVDF membranes (Millipore). Immune complexes were formed by incubation of the proteins with primary antibody β-catenin, c-myc, Axin-2, and GAPDH at 4° C. overnight. A second antibody with horseradish peroxidase (HRP, sigma) conjugated was used then. Blots were developed by enhanced chemiluminescence (Thermo).
# [18] = system: SW620 cells; test: cell cycle analysis by flow cytometry; format: cell-based, human; conditions: unsynchronized and synchronized, 24 h
# Method: SW620 cells were treated with YW2013 at various concentrations (0, 1, 10 μM) to determine the effect of YW2013 on the SW620 cell cycle in an unsynchronized assay (FIG. 27A) and an assay where cells were treated with FBS free medium for 24 hours up to synchronization before adding YW2013 (FIG. 27B).
# Cell Cycle Analysis. SW620 cells were plated in 6-well plates for 24 h, and the medium was replaced with medium containing 0, 1, 10, μM/L of YW2013. After incubation for 24 h, the cells were harvested by trypsinization and then fixed with 70% 4° C. ethanol. Intracellular DNA was stained with 50 ng/ml propidium iodide in the dark for 30 min at room temperature, and the percentages of different phase of cells were determined by flow cytometry (BD FACScan; BD Biosciences).
# [19] = system: HT-29 cells; test: colony formation assay; format: cell-based, human; conditions: 0-30 μM, 2 weeks
# Method: as §4
# [20] = system: SW480 cells; test: mitochondrial function and morphology; format: cell-based, human
# Method: FIG. 38B illustrates ATP production estimated from the OCR measurement. […] DHE fluorescence intensity was measured by using ImageJ. ˜300 cells were counted in each treatment.
# Mitochondrial function and morphology was determined in SW480 cells treated with YW2065.
# [21] = system: SW620 xenograft; test: SW620 xenograft tumor growth; format: in vivo, nude mice; conditions: i.p. 10 mg/kg or 50 mg/kg each day, 32 day study, vs vehicle
# Method: FIG. 37A illustrates tumor growth measured during the study every other day. FIG. 37B illustrates tumor weight that was measured after mouse euthanization. FIG. 37C illustrates the change in mouse body weight during the study.
# Six-week old nude mice were injected with 2×10^6 SW620 cells subcutaneously. 10 days after inoculation, mice received an i.p. injection of YW2065 at 10 mg/kg or 50 mg/kg or vehicle each day. The tumor growth (FIG. 37A) was measured every other day. The mice were euthanized at day 32, and tumors were weighed (FIG. 37B). Body weight change was monitored during the study (FIG. 37C).
# [22] = Table 3, values in nM, read-out: IC50
# [23] = HepG2, 0.1 μM pyrvinium, 10 μM YW1149
compound,measurement,setting,value
"COc1ccccc1-n1nnc(C(=O)Nc2ccc3ccccc3n2)c1C [YW1149, 1-(2-Methoxyphenyl)-5-methyl-N-(quinolin-2-yl)-1H-1,2,3-triazole-4-carboxamide]",activity at 1 µM,[1],5%
same,IC50,"[1]; FIG. 1, cellular luciferase gene reporter assay, read-out: IC50, Wnt/β-catenin pathway inhibition",74 nM
same,IC50,[1]; [22],88 nM
same,Axin protein expression,[2],increased
same,β-catenin and target gene c-Myc protein,[2],attenuation
same,glucose production,[3],reduces glucose production
same,stability in plasma,[4],stable in plasma for up to eight hours
same,IC50,[5],> 100000 nM
same,metabolism in liver S9 fraction,[6],Only minor metabolism was observed after one hour
same,bioavailability,"[7]; C57BL/6, mouse",75%
same,intravenous half-life,"[7]; mouse, iv, 10 mg/kg",one
same,expression of glucose 6-phosphatase (G6P),[8]; [23],significantly suppress
same,glucose production,[8]; [23],significantly suppress
same,phosphorylation of AMPK,[8]; HepG2 cells,increase phosphorylation
"Cc1ccccc1-n1ncc(C(=O)Nc2ccc3ccccc3n2)c1C [YW2013, 5-Methyl-N-(quinolin-2-yl)-1-(o-tolyl)-1H-pyrazole-4-carboxamide]",apical-to-basolateral and basolateral-to-apical flux,[9],significant apical-to-basolateral and basolateral-to-apical flux
same,mRNA expression of Wnt regulated genes (Axin-2 and/or cyclin D1),[10],reduced mRNA expression
same,mRNA expression of Wnt regulated genes (Axin-2 and/or cyclin D1),[11],reduced mRNA expression
same,mRNA expression of Wnt regulated genes (Axin-2 and/or cyclin D1),[12],reduced mRNA expression
same,activity at 1 µM,[1],1.9%
same,IC50,[1]; [22],9.6 nM
same,growth inhibitory activity,[13],micromolar growth inhibitory activity
same,apoptosis,[14],induced apoptosis in SW620 cells in a dose dependent manner
same,colony formation,"[15]; 0-30 μM, 2 weeks",dose dependent reduction
same,reduction in colony formation in combination,[15]; combined with Gefitinib,markedly increased when combined with Gefitinib
same,colony formation,[16],dose dependent reduction
same,"expression of Axin-2, β-catenin, and c-myc",[17],visibly reduced
same,effect on cell cycle,[18],cell cycle arrest in the G1 and S phases
"CCc1ccccc1-n1ncc(C(=O)Nc2ccc3ccccc3n2)c1C [YW2044, 1-(2-Ethylphenyl)-5-methyl-N-(quinolin-2-yl)-1H-pyrazole-4-carboxamide]",mRNA expression of Wnt regulated genes (Axin-2 and/or cyclin D1),[10],reduce mRNA expression
same,growth inhibitory activity,[13],micromolar growth inhibitory activity
same,colony formation,[19],dose dependent reduction
same,Axin-2 expression,[17],noticeable effect
"Cc1c(C(=O)Nc2ccc3ccccc3n2)cnn1-c1ccccc1Br [YW2065, 1-(2-Bromophenyl)-5-methyl-N-(quinolin-2-yl)-1H-pyrazole-4-carboxamide]",ATP production (estimated from OCR),[20],inhibited ATP production as a function of dosage
same,ROS generation (DHE staining),[20],increased ROS generation
same,oxygen consumption rate (OCR),[20],reduced oxygen consumption rate
same,mitochondrial morphology,"[20]; 10 μM, 4 hours",caused short and punctuated mitochondria
same,tumor growth,[21],markedly inhibited tumor growth; also recorded: inhibited SW620 xenograft growth
